This is an account of results in patent publication US20140271756A1, “Controlled Release of Microbiocides” (priority 2013, published 2014).

A short description of the data set: benzyltriazole release flux rate test of membrane in 20 gallons tap water. The format is physicochemical. The settings on record: 80° F., 100 hour period. The protocol: The microbiocide component release flux rate through the membrane is defined as milligrams of microbiocide component released per hour through one square millimeter of membrane or mg./hr./mm^2. Because the release flux rate varies over a wide range and is at least sometimes relatively slow, a test using benzyltriazole has been developed to quantify certain release flux rates that may be useful in accordance with the present invention. This test is conducted as follows.
A tank with twenty (20) gallons of tap water is provided, together with a recirculating heater to give mixing and temperature control. […] Water samples are collected at regular intervals over a 100 hour period and are measured for benzyltriazole content. From these measurements, the benzyltriazole release flux rate of the membrane is determined. To illustrate, suppose 300 mg of benzyltriazole is released through 351 mm^2 of membrane area (exposed through an opening in the outermost wall of the container) in 100 hours. The benzyltriazole release flux rate

As for benzyltriazole, the “benzyltriazole release flux rate” value by setting is: (membrane 27 of container 10, cellulose nitrate, average pore size about 20 to about 25 microns) “about 0.049 mg/hr/min^2”; (membrane layers 127 of container 110, cellulose nitrate, pore size about 8 microns) “about 0.025 mg/hr./mm^2”.
